Data from ChEMBL document CHEMBL1138654, “Ring nitrogen-substituted non-steroidal estrogens: pyridine and pyrimidine analogs of the phenol in deoxyhexestrol experience resonance constraints on preferred ligand conformation” (Bioorg Med Chem Lett, 2004).

Key:
[1] = pKa was determined; type: physicochemical
[2] = molecular target: Estrogen receptor beta (Homo sapiens) (UniProt Q92731); test: Inhibition of [3H]estradiol binding to human estrogen receptor beta
[3] = molecular target: T1, Estrogen receptor (Homo sapiens) (UniProt P03372); test: Inhibition of [3H]estradiol binding to human estrogen receptor alpha
T1 sequence (whole entry): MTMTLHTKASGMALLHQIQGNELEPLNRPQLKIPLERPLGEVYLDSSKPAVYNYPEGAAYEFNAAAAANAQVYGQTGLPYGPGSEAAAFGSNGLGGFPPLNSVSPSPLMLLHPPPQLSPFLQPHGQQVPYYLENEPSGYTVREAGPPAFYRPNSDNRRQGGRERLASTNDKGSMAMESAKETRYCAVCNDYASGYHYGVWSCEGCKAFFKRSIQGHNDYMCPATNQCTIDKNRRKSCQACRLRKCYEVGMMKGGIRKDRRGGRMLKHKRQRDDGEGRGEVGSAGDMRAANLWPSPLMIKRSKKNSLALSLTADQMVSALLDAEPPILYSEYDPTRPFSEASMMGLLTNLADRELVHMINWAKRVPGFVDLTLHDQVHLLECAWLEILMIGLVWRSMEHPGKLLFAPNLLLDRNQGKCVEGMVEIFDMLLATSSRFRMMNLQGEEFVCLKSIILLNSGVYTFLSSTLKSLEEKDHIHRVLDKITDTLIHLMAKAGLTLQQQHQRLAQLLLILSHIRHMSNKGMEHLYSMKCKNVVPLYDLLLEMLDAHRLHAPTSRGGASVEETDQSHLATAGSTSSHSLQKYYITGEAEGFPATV

Estrogen receptor beta (Homo sapiens), sequence (Q92731 whole entry): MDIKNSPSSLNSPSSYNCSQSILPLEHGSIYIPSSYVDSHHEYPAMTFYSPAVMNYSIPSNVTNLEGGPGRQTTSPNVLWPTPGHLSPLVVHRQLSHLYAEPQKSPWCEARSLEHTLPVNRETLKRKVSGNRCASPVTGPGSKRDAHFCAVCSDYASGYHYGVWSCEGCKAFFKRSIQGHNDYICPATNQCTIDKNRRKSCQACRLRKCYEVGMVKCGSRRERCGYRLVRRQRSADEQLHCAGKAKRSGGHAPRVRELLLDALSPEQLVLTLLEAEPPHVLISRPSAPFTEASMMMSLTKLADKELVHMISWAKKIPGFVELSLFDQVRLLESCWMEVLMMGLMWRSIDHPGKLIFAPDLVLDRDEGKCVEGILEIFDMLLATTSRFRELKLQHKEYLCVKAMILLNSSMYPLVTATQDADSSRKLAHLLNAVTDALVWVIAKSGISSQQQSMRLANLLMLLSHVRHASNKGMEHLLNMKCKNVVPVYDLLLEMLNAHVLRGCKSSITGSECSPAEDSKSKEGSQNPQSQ

`CCC(c1ccccc1)N(CC)c1ncc(O)cn1` (stereo not drawn) gave a pKa [1] of 3.9.

For `CC(c1ccc(O)cc1)C(C)c1ccc(O)cc1` (stereo not drawn), the relative binding affinity (RBA) [2] was 40 and the relative binding affinity (RBA) [3] was 2.2.
